{"source": "ChEMBL document CHEMBL1153294", "about": "“The use of oxadiazole and triazole substituted naphthyridines as HIV-1 integrase inhibitors. Part 1: Establishing the pharmacophore” (Bioorg Med Chem Lett, 2009)", "key": {"[1]": {"target": "Human immunodeficiency virus type 1 integrase (Human immunodeficiency virus 1, UniProt Q7ZJM1)", "sequence (Q7ZJM1 whole entry)": "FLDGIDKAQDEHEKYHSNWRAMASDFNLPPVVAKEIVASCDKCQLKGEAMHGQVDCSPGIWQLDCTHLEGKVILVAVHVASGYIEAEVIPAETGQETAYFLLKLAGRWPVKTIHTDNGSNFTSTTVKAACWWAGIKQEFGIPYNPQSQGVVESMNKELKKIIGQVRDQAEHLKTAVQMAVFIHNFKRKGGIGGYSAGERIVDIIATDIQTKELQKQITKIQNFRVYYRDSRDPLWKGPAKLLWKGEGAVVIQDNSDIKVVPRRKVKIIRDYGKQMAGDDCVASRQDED", "assay": "Inhibition of HIV1 recombinant integrase strand transfer activity"}, "[2]": {"system": "Human immunodeficiency virus", "assay": "Antiviral activity against HIV by pseudo-type HIV assay", "type": "functional, organism-based", "details": "Human immunodeficiency virus 1"}}, "note": "pEC50, pIC50: −log10 of the molar value.", "data": [{"smiles": "Oc1c(-c2nnc(Cc3ccc(F)cc3)o2)ncc2cccnc12", "values": [{"measurement": "pIC50", "setting": "[1]", "value": 7.38}, {"measurement": "pEC50", "setting": "[2]", "value": 6.89}]}, {"smiles": "Oc1c(-c2nnc(Cc3ccccc3)o2)ncc2cccnc12", "values": [{"measurement": "pIC50", "setting": "[1]", "value": 6.89}, {"measurement": "pEC50", "setting": "[2]", "value": 6.38}]}, {"smiles": "O=S1(=O)CCCCN1c1nc(-c2noc(Cc3ccc(F)cc3)n2)c(O)c2ncccc12", "values": [{"measurement": "pIC50", "setting": "[1]", "value": "< 4.00"}]}, {"smiles": "Oc1c(-c2nnc(Cc3ccc(Cl)cc3)[nH]2)ncc2cccnc12", "values": [{"measurement": "pIC50", "setting": "[1]", "value": 6.19}, {"measurement": "pEC50", "setting": "[2]", "value": 6.00}]}, {"smiles": "COc1ccc(Cc2nnc(-c3ncc4cccnc4c3O)[nH]2)cc1OC", "values": [{"measurement": "pIC50", "setting": "[1]", "value": 5.20}, {"measurement": "pEC50", "setting": "[2]", "value": "< 4.46"}]}, {"smiles": "Oc1c(-c2nnc(Cc3ccccc3)[nH]2)ncc2cccnc12", "values": [{"measurement": "pIC50", "setting": "[1]", "value": 6.44}, {"measurement": "pEC50", "setting": "[2]", "value": 5.06}]}, {"smiles": "Oc1c(-c2noc(Cc3ccc(F)cc3)n2)ncc2cccnc12", "values": [{"measurement": "pIC50", "setting": "[1]", "value": 6.89}, {"measurement": "pEC50", "setting": "[2]", "value": 6.66}]}, {"smiles": "Oc1c(-c2nnc(Cc3cccc(Cl)c3)[nH]2)ncc2cccnc12", "values": [{"measurement": "pIC50", "setting": "[1]", "value": 5.99}, {"measurement": "pEC50", "setting": "[2]", "value": 6.00}]}, {"smiles": "COc1cccc(Cc2nnc(-c3ncc4cccnc4c3O)[nH]2)c1", "values": [{"measurement": "pIC50", "setting": "[1]", "value": 5.55}, {"measurement": "pEC50", "setting": "[2]", "value": "< 4.46"}]}, {"smiles": "Oc1c(-c2noc(-c3ccccc3)n2)ncc2cccnc12", "values": [{"measurement": "pIC50", "setting": "[1]", "value": "< 4.00"}]}, {"smiles": "O=C(NCc1ccc(F)cc1)c1ncc2cccnc2c1O", "values": [{"measurement": "pIC50", "setting": "[1]", "value": 7.92}, {"measurement": "pEC50", "setting": "[2]", "value": 7.12}]}, {"smiles": "O=S1(=O)CCCCN1c1nc(-c2nnc(Cc3ccc(F)cc3)[nH]2)c(O)c2ncccc12", "values": [{"measurement": "pIC50", "setting": "[1]", "value": 7.96}, {"measurement": "pEC50", "setting": "[2]", "value": 6.62}]}, {"smiles": "Cn1nc(Cc2ccc(F)cc2)nc1-c1ncc2cccnc2c1O", "values": [{"measurement": "pIC50", "setting": "[1]", "value": "< 3.30"}]}, {"smiles": "Oc1c(-c2nnc(Cc3cccnc3)[nH]2)ncc2cccnc12", "values": [{"measurement": "pIC50", "setting": "[1]", "value": 5.46}, {"measurement": "pEC50", "setting": "[2]", "value": 5.19}]}, {"smiles": "Oc1c(-c2noc(Cc3ccccc3)n2)ncc2cccnc12", "values": [{"measurement": "pIC50", "setting": "[1]", "value": 6.02}, {"measurement": "pEC50", "setting": "[2]", "value": 5.72}]}, {"smiles": "O=C(NCc1ccc(F)cc1)c1nc(N2CCCCS2(=O)=O)c2cccnc2c1O", "values": [{"measurement": "pEC50", "setting": "[2]", "value": 8.70}]}, {"smiles": "Oc1c(-c2nnc(Cc3ccc(F)cc3)[nH]2)ncc2cccnc12", "values": [{"measurement": "pIC50", "setting": "[1]", "value": 6.89}, {"measurement": "pEC50", "setting": "[2]", "value": 6.49}]}, {"smiles": "Oc1c(-c2nnc(CCc3ccccc3)[nH]2)ncc2cccnc12", "values": [{"measurement": "pIC50", "setting": "[1]", "value": 5.62}, {"measurement": "pEC50", "setting": "[2]", "value": "< 4.70"}]}, {"smiles": "Cn1nc(-c2ncc3cccnc3c2O)nc1Cc1ccc(F)cc1", "values": [{"measurement": "pIC50", "setting": "[1]", "value": 5.10}]}, {"smiles": "O=S1(=O)CCCCN1c1nc(-c2nnc(Cc3ccc(F)cc3)o2)c(O)c2ncccc12", "values": [{"measurement": "pIC50", "setting": "[1]", "value": 8.70}, {"measurement": "pEC50", "setting": "[2]", "value": 7.89}]}, {"smiles": "Oc1c(-c2nnc(Cc3ccncc3)[nH]2)ncc2cccnc12", "values": [{"measurement": "pIC50", "setting": "[1]", "value": 5.34}, {"measurement": "pEC50", "setting": "[2]", "value": "< 4.46"}]}]}
